Results from the supplement of paper PMC10307832.

Key:
Assay in all cases: relative viability (nuclei count vs DMSO), 5 days (fraction); higher = more cells survive
[1] = compound: C1CC1C(=O)NC2=NNC3=C2C=CC(=C3)C4=CC(=CC=C4)C(=O)NC5CC5 [XMD13-2] + COc1cc2c(Oc3ccc(NC(=O)C4(C(=O)Nc5ccc(F)cc5)CC4)cc3F)ccnc2cc1OCCCN1CCOCC1 [Foretinib] (partner 0.25 µM)
Outline: (§1)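 Five library-drug doses in √10 steps were combined with a fixed anchor-drug dose, or a single drug was given alone, by pin tool to lung cancer cell lines in 1536-well plates the day after seeding. Nuclei were stained and counted after 5 days. Relative viability is the nuclei count in treated wells over that in vehicle wells, taken as the median of duplicate plates.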

[2] = compound: Cc1ccc(C(=O)Nc2cccc(C(F)(F)F)c2)cc1Nc1cncc(C(N)=O)c1 [ALW-II-49-7] + Cc1nc(Nc2ncc(C(=O)Nc3c(C)cccc3Cl)s2)cc(N2CCN(CCO)CC2)n1 [Dasatinib] (partner 0.075 µM)
Outline: as §1

[3] = compound: Cc1ccc(C(=O)Nc2cccc(C(F)(F)F)c2)cc1Nc1cncc(C(N)=O)c1 [ALW-II-49-7] + O=C(CCCCCCC(=O)Nc1ccccc1)NO [Vorinostat] (partner 1 µM)
Outline: as §1

[4] = compound: Cc1nc(Nc2ncc(C(=O)Nc3c(C)cccc3Cl)s2)cc(N2CCN(CCO)CC2)n1 [Dasatinib] + CC(C)C[C@H](NC(=O)[C@H](Cc1ccccc1)NC(=O)c1cnccn1)B(O)O [Bortezomib] (partner 0.002 µM)
Outline: as §1

| Cell Line | relative viability ([1]; first compound 0.05 µM) | relative viability ([1]; first compound 0.1581 µM) | relative viability ([1]; first compound 0.5 µM) | relative viability ([1]; first compound 1.581 µM) | relative viability ([1]; first compound 5 µM) | relative viability ([2]; first compound 0.08 µM) | relative viability ([2]; first compound 0.253 µM) | relative viability ([2]; first compound 0.8 µM) | relative viability ([2]; first compound 2.53 µM) | relative viability ([2]; first compound 8 µM) | relative viability ([3]; first compound 0.08 µM) | relative viability ([3]; first compound 0.253 µM) | relative viability ([3]; first compound 0.8 µM) | relative viability ([3]; first compound 2.53 µM) | relative viability ([3]; first compound 8 µM) | relative viability ([4]; first compound 0.005 µM) | relative viability ([4]; first compound 0.01581 µM) | relative viability ([4]; first compound 0.05 µM) | relative viability ([4]; first compound 0.1581 µM) | relative viability ([4]; first compound 0.5 µM) |
| --- | --- | --- | --- | --- | --- | --- | --- | --- | --- | --- | --- | --- | --- | --- | --- | --- | --- | --- | --- | --- |
| NCI-H596 | 0.89 | 0.62 | 1.03 | 0.852 | 0.888 | 0.575 | 0.632 | 0.459 | 0.582 | 0.581 | 0.488 | 0.574 | 0.586 | 0.683 | 0.456 | 0.928 | 0.815 | 0.826 | 0.525 | 0.515 |
| NCI-H647 | 1.36 | 1.13 | 1.31 | 1.21 | 0.796 | 0.153 | 0.131 | 0.15 | 0.161 | 0.193 | 0.539 | 0.642 | 0.599 | 0.321 | 0.349 | 0.547 | 0.593 | 0.447 | 0.257 | 0.189 |
| NCI-H650 | 1.16 | 1.02 | 1.14 | 1.06 | 0.972 | 0.42 | 0.518 | 0.421 | 0.482 | 0.341 | 0.351 | 0.461 | 0.579 | 0.42 | 0.374 | 0.867 | 0.939 | 0.73 | 0.559 | 0.451 |
| NCI-H661 | 1 | 1.06 | 1.04 | 1.02 | 0.875 | 0.782 | 1.06 | 0.965 | 0.832 | 0.767 | 0.854 | 0.859 | 0.823 | 0.795 | 0.79 | 0.62 | 0.415 | 0.557 | 0.319 | 0.24 |
| NCI-H727 | 1.21 | 0.903 | 0.946 | 0.738 | 0.737 | 0.352 | 0.324 | 0.193 | 0.412 | 0.446 | 1.16 | 1.33 | 1.02 | 1.14 | 1.12 | 0.606 | 0.663 | 0.554 | 0.463 | 0.258 |
| NCI-H838 | 1.19 | 1.05 | 1.01 | 1.04 | 1.01 | 0.395 | 0.34 | 0.294 | 0.257 | 0.255 | 0.778 | 0.748 | 0.693 | 0.759 | 0.769 | 0.747 | 0.395 | 0.445 | 0.198 | 0.202 |
| NCI-H1355 | 1.08 | 0.944 | 1.04 | 1.08 | 1.1 | 0.615 | 0.731 | 0.622 | 0.573 | 0.658 | 0.63 | 0.618 | 0.615 | 0.591 | 0.597 | 1.12 | 1.11 | 1.06 | 0.981 | 0.779 |
| NCI-H1437 | 1.2 | 1.25 | 1.25 | 1.24 | 1.27 | 0.414 | 0.404 | 0.425 | 0.309 | 0.333 | 0.831 | 0.926 | 0.822 | 0.756 | 0.699 | 0.509 | 0.363 | 0.469 | 0.487 | 0.138 |
| NCI-H1650 | 1.36 | 1.07 | 1.15 | 0.967 | 1.81 | 0.273 | 0.306 | 0.323 | 0.282 | 0.341 | 0.518 | 0.656 | 0.563 | 0.524 | 0.576 | 0.227 | 0.195 | 0.193 | 0.217 | 0.2 |
| NCI-H1651 | 0.866 | 0.808 | 0.799 | 0.744 | 0.827 | 0.317 | 0.393 | 0.432 | 0.507 | 0.517 | 0.576 | 0.665 | 0.579 | 0.54 | 0.555 | 0.947 | 0.873 | 0.795 | 0.859 | 0.825 |
| NCI-H1666 | 1.12 | 0.998 | 0.913 | 0.926 | 0.982 | 0.845 | 0.81 | 0.794 | 0.767 | 0.835 | 0.903 | 1.07 | 1.11 | 0.971 | 1 | 0.763 | 0.663 | 0.718 | 0.582 | 0.288 |
| NCI-H1734 | 1.05 | 0.843 | 0.864 | 0.8 | 0.658 | 0.483 | 0.414 | 0.485 | 0.463 | 0.332 | 0.763 | 0.8 | 0.78 | 0.795 | 0.727 | 0.754 | 0.508 | 0.79 | 0.425 | 0.561 |
| NCI-H1755 | 1.04 | 0.871 | 0.939 | 0.86 | 0.937 | 0.397 | 0.442 | 0.459 | 0.408 | 0.308 | 0.88 | 0.83 | 0.783 | 0.685 | 0.608 | 0.842 | 0.759 | 0.645 | 0.538 | 0.297 |
| NCI-H1915 | 1.12 | 1.08 | 1.12 | 1.11 | 1.21 | 0.372 | 0.349 | 0.339 | 0.326 | 0.292 | 0.585 | 0.483 | 0.498 | 0.348 | 0.256 | 0.982 | 0.809 | 0.876 | 0.593 | 0.298 |
